The test system of test [1] is monocytes differentiated to M1 macrophage. Nature of the test: M1 macrophage differentiation assay. Format: cell-based, human. Particulars: TNF-α, IL-1b, IL-6, IL-12, IL-23 in supernatant on day 7 (MSD); concentrations of Table 9. The text has this:
The purpose of this study was to evaluate the effects of lobeglitazone and other thiazolidinediones on M1 macrophage differentiation. The test articles and vehicles used in this study were lobeglitazone sulfate, pioglitazone HCl, and rosiglitazone.
M1 macrophage differentiation assay timeline was as follows in Table 8.
Drug concentrations tested in the M1 differentiation assay are as in Table 9.
• (1) Revive frozen monocytes. • (2) Count cells and adjust the cell density to 0.5×10^6 cells/ml with fresh complete differentiation medium (RPMI1640+10% FBS+1% PS plus GM-CSF or M-CSF at 50 ng/ml). • (3) Seed isolated monocyte 100 μL per well on 96-well plate. • (4) Add test articles as the plate map using D300e (final concentration in μM). • (5) Differentiate the monocyte to macrophage in the presence of GM-CSF to M1, or M-CSF to M2 for 5 days. • (6) On day 5, add cytokines at 2× final concentration. • (6a) Prepare medium containing GM-CSF for M1 and M-CSF for M2. • (6b) Add corresponding activator to reach 2× final working concentration: (i) IFNγ stock 0.2 mg/ml: add 2.5 μL stock into 5 ml complete differentiation medium for 100 ng/ml; (ii) LPS stock 1.0 mg/ml: dilute to 20 μg/ml by mixing 2 μL stock into 100 μl medium; then add 10 μl 20 μg/ml LPS to 5 ml complete differentiation medium for 40 ng/ml; (iii) IL-4 stock 0.1 mg/ml: dilute 2 μL stock into 5 ml complete differentiation medium for 40 ng/ml. • (6c) Add 100 μL cytokine containing differentiating medium to each well, and total volume of each well is 200 μL. • (6d) Add test compound again using D300e. Make sure to set the final volume as 200 μL. • (7) Incubate cytokine and test compound for 48 hours. • (8) On day 7, spin down the plates at 300×g for 5 min and collect the supernatant for cytokine quantification using MSD. • (9) M1 associated macrophage cytokines TNF-α, IL-1b, IL-6, IL-12, and IL-23 were quantified.

Test [2] has as its system colon of DSS-induced IBD model mice. Nature of the test: Colon histology (H&E score, PAS goblet cells) in the DSS-induced IBD model. Format: in vivo. The settings on record: vs model. Here is the method:
H&E staining: Colon sections were cut at 4 μm in thickness, dried in an oven for 1 hour and stained with H&E solution with our standard protocol. Briefly, the sections were stained with hematoxylin solution for 90 seconds. Then stain in eosin solution for 30 seconds. Then dehydrated and coverslipped for the subsequent image analysis. H&E stained images was scanned using LEICA Aperio® GT450. The severity of inflammatory cell infiltration and tissue damage were semi-quantitatively evaluated according to pathology score criteria in Table 7.
PAS staining: Colon sections were cut at 4 μm in thickness, dried in an oven for 1 hour and stained with PAS kit (Gefan #M035) with our standard protocol. Briefly, the sections were stained with periodic acid working solution for 8 minutes. Then wash with distilled water for 5 minutes, three times. Stain in Schiff solution for 10 minutes. Transform to distilled water for 5 minutes, three times. Then dehydrated and coverslipped for the subsequent image analysis.
The total length of the colon was measured by a ruler and then was divided into 3 segments, 100 microns in the middle of each segment was taken out for goblet cell calculation. In each 100 microns of colon tissue, the number of goblet cells was calculated, then the average number of goblet cells from three parts was used for next analysis.
In vivo animal data were presented as mean±SEM. Statistical analysis was performed by one-way ANOVA followed by Dunnett's multiple comparison. […] The difference was considered significance when p<0.05.

Each structure is given as a SMILES string.

For `COc1ccc(Oc2cc(N(C)CCOc3ccc(CC4SC(=O)NC4=O)cc3)ncn2)cc1` (stereo not shown) [lobeglitazone, 5-(4-(2-((6-(4-Methoxyphenoxy)pyrimidin-4-yl)(methyl)amino)ethoxy)benzyl)thiazolidine-2,4-dione], in test [1], the “M1 macrophage cytokines expression” value was “did not show the promotion”. In addition, the “H&E total score (inflammation/tissue damage)” value in test [2] (0.36 mg/kg PO QD 10 days), in test [2] (1.20 mg/kg PO QD 10 days) and in test [2] (3.61 mg/kg PO QD 10 days) was “led to decrease” in each case. The entries for the “number of goblet cells (PAS staining)” value in test [2] (0.36 mg/kg PO QD 10 days), in test [2] (1.20 mg/kg PO QD 10 days) and in test [2] (3.61 mg/kg PO QD 10 days) were “trended to increase”, “trended to increase” and “did not change”, respectively.

(Values after US20250262209A1, “TREATMENT OF GASTROINTESTINAL DISEASES” (Aclipse Two, Inc., priority 2022, published 2025).)
